Assay results published in ChEMBL document CHEMBL1138013, “Parallel methods for the preparation and SAR exploration of N-ethyl-4-[(8-alkyl-8-aza-bicyclo[3.2.1]oct-3-ylidene)-aryl-methyl]-benzamides, powerful mu and delta opioid agonists” (Bioorg Med Chem Lett, 2004).

Tests used:
[1] = molecular target: Mu-type opioid receptor (Mus musculus) (UniProt P42866); experiment: Ratio of binding affinity against mu to that of delta opioid receptor
[2] = Binding affinity against delta opioid receptor […]; set-up: species or system Mus musculus
Mu-type opioid receptor = Mu-type opioid receptor (Mus musculus, UniProt P42866); experiment: Binding affinity against mu opioid receptor […]
Mu-type opioid receptor, sequence (P42866 whole entry): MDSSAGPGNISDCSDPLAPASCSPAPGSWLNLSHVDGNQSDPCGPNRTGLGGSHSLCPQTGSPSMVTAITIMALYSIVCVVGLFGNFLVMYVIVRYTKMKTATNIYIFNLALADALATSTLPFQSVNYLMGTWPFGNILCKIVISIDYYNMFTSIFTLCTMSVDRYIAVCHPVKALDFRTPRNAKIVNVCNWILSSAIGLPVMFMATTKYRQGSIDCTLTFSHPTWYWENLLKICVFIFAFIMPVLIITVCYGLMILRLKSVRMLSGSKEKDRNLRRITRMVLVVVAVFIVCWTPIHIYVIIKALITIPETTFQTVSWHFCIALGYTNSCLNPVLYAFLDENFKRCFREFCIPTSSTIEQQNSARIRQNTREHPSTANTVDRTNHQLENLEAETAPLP

Mu-type opioid receptor (Mus musculus), sequence (P42866 whole entry): as above

Compound	Ratio [1]	Ki [2]	Ki (Mu-type opioid receptor)
CCNC(=O)c1ccc(C(=C2CC3CCC(C2)N3Cc2cccnc2)c2ccccc2)cc1	0.87	71 nM	–
CCNC(=O)c1ccc(C(=C2CC3CCC(C2)N3Cc2ccsc2)c2ccc3c(c2)OCO3)cc1	0.42	3.1 nM	1.3 nM
CCNC(=O)c1ccc(C(=C2CC3CCC(C2)N3Cc2ccoc2)c2cccc(F)c2)cc1	9.3	0.4 nM	3.7 nM
CCNC(=O)c1ccc(C(=C2CC3CCC(C2)N3Cc2ccoc2)c2cccc(CN)c2)cc1	3.6	20 nM	71 nM
CCNC(=O)c1ccc(/C(=C2/C[C@H]3CC[C@@H](C2)N3Cc2ccccn2)c2ccc(C(=O)N(C)C)cc2)cc1	–	0.5 nM	100 nM
CCNC(=O)c1ccc(C(=C2CC3CCC(C2)N3Cc2ccoc2)c2cccc(C(=O)O)c2)cc1	8	3.5 nM	–
CCNC(=O)c1ccc(C(=C2CC3CCC(C2)N3Cc2c[nH]cn2)c2cccc(NC(C)=O)c2)cc1	0.5	19 nM	–
CCNC(=O)c1ccc(C(=C2CC3CCC(C2)N3Cc2ccccn2)c2cccc(NC(C)=O)c2)cc1	0.13	28 nM	3.6 nM
CCNC(=O)c1ccc(C(=C2CC3CCC(C2)N3Cc2ccoc2)c2cccc(CCC(=O)O)c2)cc1	3.9	0.78 nM	3 nM
CCNC(=O)c1ccc(/C(=C2/C[C@H]3CC[C@@H](C2)N3Cc2ccsc2)c2cccc(-c3nn[nH]n3)c2)cc1	–	31 nM	3100 nM
C=C(C)CCN1[C@@H]2CC[C@H]1C/C(=C(/c1ccc(C(=O)NCC)cc1)c1cccc(C(C)=O)c1)C2	–	1.5 nM	2.8 nM
CCNC(=O)c1ccc(/C(Br)=C2\C[C@H]3CC[C@@H](C2)N3Cc2ccoc2)cc1	–	0.3 nM	0.2 nM
CCNC(=O)c1ccc(C(=C2CC3CCC(C2)N3Cc2ccoc2)c2ccc(S(C)(=O)=O)cc2)cc1	1.6	2 nM	3.1 nM
CCNC(=O)c1ccc(C(=C2CC3CCC(C2)N3Cc2ccoc2)c2ccc(F)cc2)cc1	1.2	1.4 nM	1.7 nM
CCNC(=O)c1ccc(C(=C2CC3CCC(C2)N3Cc2ccoc2)c2ccc(C(C)=O)cc2)cc1	5.2	0.33 nM	1.7 nM
CCNC(=O)c1ccc(C(=C2CC3CCC(C2)N3Cc2ccoc2)c2nnn[nH]2)cc1	0.4	210 nM	83 nM
CCNC(=O)c1ccc(/C(=C2/C[C@H]3CC[C@@H](C2)N3Cc2ccsc2)c2ccc(CO)cc2)cc1	–	17 nM	80 nM
CCNC(=O)c1ccc(/C(=C2\C[C@H]3CC[C@@H](C2)N3Cc2ccsc2)c2cccc(-c3nn[nH]n3)c2)cc1	–	0.7 nM	12 nM
CCNC(=O)c1ccc(C(C#N)=C2CC3CCC(C2)N3Cc2ccoc2)cc1	3.3	0.3 nM	1 nM
CCN(CC)C(=O)c1ccc(C(=C2CC3CCC(C2)N3CCc2ccccc2)c2ccccc2)cc1	0.0055	47 nM	0.26 nM
CCNC(=O)c1ccc(C=C2CC3CCC(C2)N3Cc2ccoc2)cc1	1.2	93 nM	110 nM

Compound	Ratio [1]	Ki [2]	Ki (Mu-type opioid receptor)
CCNC(=O)c1ccc(C(=C2CC3CCC(C2)N3Cc2cccs2)c2ccccn2)cc1	1.6	3.8 nM	6 nM
CCNC(=O)c1ccc(C(=C2CC3CCC(C2)N3CCc2ccccc2)c2ccccc2)cc1	300	0.24 nM	72 nM
CCNC(=O)c1ccc(C(=C2CC3CCC(C2)N3Cc2ccoc2)c2cccnc2)cc1	3	0.4 nM	1.2 nM
CCNC(=O)c1ccc(C(=C2CC3CCC(C2)N3Cc2ccoc2)c2cnc3ccccc3c2)cc1	0.2	20 nM	4 nM
CCNC(=O)c1ccc(C(=C2CC3CCC(C2)N3Cc2ccoc2)c2cncnc2)cc1	3	2.3 nM	6.9 nM
CCNC(=O)c1ccc(C(=C2CC3CCC(C2)N3Cc2cnc[nH]2)c2cccc(NC(C)=O)c2)cc1	–	–	9.4 nM
C=C(C)CCN1[C@@H]2CC[C@H]1C/C(=C(/c1ccc(C(=O)NCC)cc1)c1cccc(C(=O)O)c1)C2	–	2.2 nM	58 nM
CCNC(=O)c1ccc(C(=C2CC3CCC(C2)N3Cc2ccoc2)c2cc(C(=O)O)cc([N+](=O)[O-])c2)cc1	13	0.94 nM	12 nM
C=C(C)CCN1C2CCC1CC(=C(c1ccc(C(=O)NCC)cc1)c1ccco1)C2	1.1	5.6 nM	6.3 nM
CCNC(=O)c1ccc(C(=C2CC3CCC(C2)N3Cc2ccoc2)c2ccncc2)cc1	0.37	6 nM	2.2 nM
CCNC(=O)c1ccc(C(=C2CC3CCC(C2)N3Cc2ccoc2)c2ccc(O)c(OC)c2)cc1	2	0.3 nM	0.59 nM
CCNC(=O)c1ccc(C(=C2CC3CCC(C2)N3Cc2ccoc2)c2cccc(C(C)=O)c2)cc1	3.3	0.4 nM	1.3 nM
CCNC(=O)c1ccc(C(=C2CC3CCC(C2)N3Cc2ccoc2)c2ccc(N(C)C)cc2)cc1	5.9	8.7 nM	51 nM
CCNC(=O)c1ccc(C(=C2CC3CCC(C2)N3Cc2ccoc2)c2ccc(CO)cc2)cc1	7	2.7 nM	19 nM
CCNC(=O)c1ccc(C(=C2CC3CCC(C2)N3Cc2ccoc2)c2ccc(C(=O)N(C)C)cc2)cc1	1.5	4.6 nM	6.7 nM
CCNC(=O)c1ccc(C(=C2CC3CCC(C2)N3Cc2ccoc2)c2ccc(NC(C)=O)cc2)cc1	2.4	0.34 nM	0.8 nM
CCNC(=O)c1ccc(C(=C2CC3CCC(C2)N3Cc2ccoc2)c2cccc(CO)c2)cc1	5.4	0.15 nM	0.81 nM
CCNC(=O)c1ccc(C(=C2CC3CCC(C2)N3Cc2ccoc2)c2cc(N)cc(C(=O)O)c2)cc1	160	56 nM	9100 nM
CCNC(=O)c1ccc(C(=C2CC3CCC(C2)N3Cc2ccoc2)c2ccc3c(c2)OCO3)cc1	1	–	1.1 nM
CCNC(=O)c1ccc(C(=C2CC3CCC(C2)N3Cc2cccc(C(=O)O)c2)c2ccccc2)cc1	1.7	280 nM	480 nM
CCNC(=O)c1ccc(C(=C2CC3CCC(C2)N3Cc2ccoc2)c2ccc(C(N)=O)cc2)cc1	0.33	3.9 nM	1.3 nM

Compound	Ratio [1]	Ki [2]	Ki (Mu-type opioid receptor)
CCNC(=O)c1ccc(C(=C2CC3CCC(C2)N3Cc2ccoc2)c2cnccn2)cc1	2.9	3.4 nM	9.9 nM
CCNC(=O)c1ccc(C(=C2CC3CCC(C2)N3Cc2ccoc2)c2c(C)noc2C)cc1	1.5	1.2 nM	1.8 nM
CCNC(=O)c1ccc(C(=C2CC3CCC(C2)N3Cc2ccoc2)c2c(C)cccc2C)cc1	1.1	1.3 nM	1.4 nM
CCNC(=O)c1ccc(C(=C2CC3CCC(C2)N3Cc2ccoc2)c2ccc(S(N)(=O)=O)cc2)cc1	3.1	16 nM	50 nM
CCNC(=O)c1ccc(C(=C2CC3CCC(C2)N3Cc2ccoc2)c2ccccn2)cc1	4.5	10 nM	45 nM
CCNC(=O)c1ccc(C(=C2CC3CCC(C2)N3Cc2ccoc2)c2cccc(NC(C)=O)c2)cc1	2.4	0.5 nM	1.2 nM
CCNC(=O)c1ccc(/C(=C2\C[C@H]3CC[C@@H](C2)N3Cc2ccsc2)c2ccc(CO)cc2)cc1	–	2 nM	17 nM
C=C(C)CCN1C2CCC1CC(=C(c1ccc(C(=O)NCC)cc1)c1cccc(C(C)=O)c1)C2	1.1	1.8 nM	1.9 nM
CCNC(=O)c1ccc(C(=C2CC3CCC(C2)N3Cc2ccoc2)c2ccc([N+](=O)[O-])cc2)cc1	6.5	0.23 nM	1.5 nM
C=C(C)CCN1[C@@H]2CC[C@H]1C/C(=C(\c1ccc(C(=O)NCC)cc1)c1cccc(C(C)=O)c1)C2	–	28 nM	680 nM
CCNC(=O)c1ccc(C(=C2CC3CCC(C2)N3Cc2ccoc2)c2ccc(C(=O)O)cc2)cc1	2.3	5.3 nM	12 nM
CCNC(=O)c1ccc(/C(Br)=C2/C[C@H]3CC[C@@H](C2)N3Cc2ccoc2)cc1	–	29 nM	39 nM
CCNC(=O)c1ccc(/C(C#N)=C2/C[C@H]3CC[C@@H](C2)N3Cc2ccoc2)cc1	–	1.1 nM	2.3 nM
CCNC(=O)c1ccc(/C(C#N)=C2\C[C@H]3CC[C@@H](C2)N3Cc2ccoc2)cc1	–	0.9 nM	2.6 nM
CCNC(=O)c1ccc(C(=C2CC3CCC(C2)N3Cc2ccoc2)c2cccc(C#N)c2)cc1	5.5	0.6 nM	3.3 nM
C=C(C)CCN1[C@@H]2CC[C@H]1C/C(=C(\c1ccc(C(=O)NCC)cc1)c1cccc(C(=O)O)c1)C2	–	30 nM	24 nM
CCNC(=O)c1ccc(/C(=C2\C[C@H]3CC[C@@H](C2)N3Cc2ccccn2)c2ccc(C(=O)N(C)C)cc2)cc1	–	0.2 nM	14 nM
CCNC(=O)c1ccc(C(=C2CC3CCC(C2)N3Cc2ccoc2)c2cccc(-c3nn[nH]n3)c2)cc1	2100	0.73 nM	–
CCNC(=O)c1ccc(C(=C2CC3CCC(C2)N3Cc2ccsc2)c2cnccn2)cc1	0.15	17 nM	2.5 nM
CCNC(=O)c1ccc(C(Br)=C2CC3CCC(C2)N3Cc2ccoc2)cc1	2.4	0.8 nM	1.9 nM
CCNC(=O)c1ccc(C(=C2CC3CCC(C2)N3Cc2ccoc2)c2cccc(N)c2)cc1	1.3	2 nM	2.6 nM
